These results are taken from ChEMBL document CHEMBL1133712, “Monocyclic L-nucleosides with type 1 cytokine-inducing activity” (2000).

Format in all cases: functional, Homo sapiens
Set-up in all cases: concentration or dose not given beside the values

Experiment [1] in a line: Compounds was tested for the effect of L-nucleosides of ribavirin on SEB (staphylococcal enterotoxin B)-stimulated T-cell expression of the type 1 cytokine TNF-alpha.
The nature of experiment [2]: Compounds was tested for the effect of L-nucleosides of ribavirin on SEB (staphylococcal enterotoxin B)-stimulated T-cell expression of the type 1 cytokine IFN-gamma.
Experiment [3] in a line: Compounds was tested for the effect of L-nucleosides of ribavirin on SEB (staphylococcal enterotoxin B)-stimulated T-cell expression of the type 1 cytokine IL-2.

As for `NC(=O)c1ncn([C@H]2O[C@@H](CO)[C@H](O)[C@@H]2O)n1`, the Control is recorded as 144% in experiment [1], 122% in experiment [2] and 131% in experiment [3].
As to `NC(=O)c1ncn([C@@H]2O[C@H](CO)[C@@H](O)[C@H]2O)n1` [RIBAVIRIN], the Control in experiment [1] was determined as 124%; in experiment [2], 131%; in experiment [3], 143%.
As to `NC(=O)c1ncn([C@H]2O[C@@H](CO)C[C@@H]2O)n1`, the Control is 109% in experiment [1], 114% in experiment [2] and 115% in experiment [3].
On the same counts, the results for `Cl.N=C(N)c1ncn([C@H]2O[C@@H](CO)[C@H](O)[C@@H]2O)n1` are 120%, 128% and 133%.
For `NC(=O)c1ncn([C@H]2O[C@@H](CO)[C@@H](O)[C@@H]2O)n1`, the Control in experiment [1] stood at 132%; in experiment [2] it was 119%; in experiment [3], 100%.
As to `NC(=O)c1ncn([C@@H]2C[C@@H](O)[C@H](CO)O2)n1`, the Control was determined as 119% in experiment [1], 110% in experiment [2] and 108% in experiment [3].
